According to US8952024B2, “Herbicidal pyrimidone derivatives” (E I du Pont de Nemours and Company, priority 2009, dated 2015):

How the values were obtained:
Assay in all cases: Test D pre-/postemergence plant response
Type in all cases: in vivo
[1] = system: Italian ryegrass (Lolium multiflorum)
Outline: (§1)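 Under greenhouse conditions for 14 to 21 days, plants treated pre- or postemergence with surfactant-formulated compound were compared by eye with untreated controls and scored 0–100 (100 = complete control; dash = no result).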

[2] = system: barnyardgrass (Echinochloa crus-galli)
Outline: as §1

[3] = system: black mustard (Brassica nigra)
Outline: as §1

[4] = system: chickweed (common chickweed, Stellaria media)
Outline: as §1

[5] = system: dallisgrass (Paspalum dilatatum)
Outline: as §1

[6] = system: dayflower (Virginia (VA) dayflower, Commelina virginica)
Outline: as §1

[7] = system: field bindweed (Convolvulus arvensis)
Outline: as §1

[8] = system: green foxtail (Setaria viridis)
Outline: as §1

[9] = system: groundsel (common groundsel, Senecio vulgaris); settings: Postemergence
Outline: as §1

[10] = system: guineagrass (Panicum maximum)
Outline: as §1

[11] = system: itchgrass (Rottboellia cochinchinensis)
Outline: as §1

[12] = system: johnsongrass (Sorghum halepense)
Outline: as §1

[13] = system: mallow (common mallow, Malva sylvestris)
Outline: as §1

[14] = system: prickly sida (Sida spinosa)
Outline: as §1

[15] = system: purslane (common purslane, Portulaca oleracea)
Outline: as §1

[16] = system: quackgrass (Elytrigia repens)
Outline: as §1

[17] = system: ragweed (common ragweed, Ambrosia elatior)
Outline: as §1

[18] = system: sandbur (southern sandbur, Cenchrus echinatus)
Outline: as §1

[19] = system: sowthistle (common sowthistle, Sonchus oleraceous)
Outline: as §1

[20] = Postemergence, 31 g ai/ha, scale 0 to 100
[21] = Postemergence, 62 g ai/ha, scale 0 to 100 (0 no effect, 100 complete control)
[22] = Postemergence, 125 g ai/ha, scale 0 to 100 (0 no effect, 100 complete control)
[23] = Postemergence, 16 g ai/ha, scale 0 to 100
[24] = Preemergence, 16 g ai/ha, scale 0 to 100, 0 no effect, 100 complete control
[25] = Preemergence, 31 g ai/ha, scale 0 to 100 (0 no effect, 100 complete control)
[26] = Preemergence, 125 g ai/ha, scale 0 to 100
[27] = Postemergence, 31 g ai/ha, scale 0 to 100 (0 no effect, 100 complete control)
[28] = Preemergence, 62 g ai/ha, scale 0 to 100

## COCCn1c(-c2ccccc2)ncc(C(=O)C2=C(O)CCCC2=O)c1=O [Compound 85]
[1]; [20]
  Plant response rating, Ryegrass, Italian: 0
[1]; [21]
  Plant response rating, Ryegrass, Italian: 15
[1]; [22]
  Plant response rating, Ryegrass, Italian: 20
[1]; [23]
  Plant response rating, Ryegrass, Italian: 0
[1]; [24]
  Plant response rating, Ryegrass, Italian: 0
[1]; [25]
  Plant response rating, Ryegrass, Italian: 0
[1]; [26]
  Plant response rating, Ryegrass, Italian: 20
[2]; [27]
  Plant response rating, Barnyardgrass: 50
[2]; [21]
  Plant response rating, Barnyardgrass: 65
[2]; [22]
  Plant response rating, Barnyardgrass: 70
[2]; [23]
  Plant response rating, Barnyardgrass: 30
[2]; [24]
  Plant response rating, Barnyardgrass: 60
[2]; [25]
  Plant response rating, Barnyardgrass: 75
[2]; [28]
  Plant response rating, Barnyardgrass: 95
[2]; [26]
  Plant response rating, Barnyardgrass: 98
[3]; [27]
  Plant response rating, Black Mustard: 60
[3]; [21]
  Plant response rating, Black Mustard: 75
[3]; [22]
  Plant response rating, Black Mustard: 85
[3]; [23]
  Plant response rating, Black Mustard: 35
[3]; [24]
  Plant response rating, Black Mustard: 50
[3]; [25]
  Plant response rating, Black Mustard: 60
[3]; [28]
  Plant response rating, Black Mustard: 98
[3]; [26]
  Plant response rating, Black Mustard: 100
[4]; [20]
  Plant response rating, Chickweed: 80
[4]; [21]
  Plant response rating, Chickweed: 100
[4]; [22]
  Plant response rating, Chickweed: 100
[4]; [24]
  Plant response rating, Chickweed: 90
[4]; [25]
  Plant response rating, Chickweed: 100
[4]; [28]
  Plant response rating, Chickweed: 100
[4]; [26]
  Plant response rating, Chickweed: 100
[5]; [20]
  Plant response rating, Dallisgrass: 25
[5]; [21]
  Plant response rating, Dallisgrass: 65
[5]; [22]
  Plant response rating, Dallisgrass: 80
[5]; [23]
  Plant response rating, Dallisgrass: 15
[5]; [24]
  Plant response rating, Dallisgrass: 50
[5]; [25]
  Plant response rating, Dallisgrass: 80
[5]; [28]
  Plant response rating, Dallisgrass: 95
[5]; [26]
  Plant response rating, Dallisgrass: 98
[6]; [20]
  Plant response rating, Dayflower, VA: 30
[6]; [21]
  Plant response rating, Dayflower, VA: 60
[6]; [22]
  Plant response rating, Dayflower, VA: 80
[6]; [23]
  Plant response rating, Dayflower, VA: 20
[6]; [24]
  Plant response rating, Dayflower, VA: 5
[6]; [25]
  Plant response rating, Dayflower, VA: 10
[6]; [28]
  Plant response rating, Dayflower, VA: 90
[6]; [26]
  Plant response rating, Dayflower, VA: 95
[7]; [20]
  Plant response rating, Field Bindweed: 75
[7]; [21]
  Plant response rating, Field Bindweed: 75
[7]; [22]
  Plant response rating, Field Bindweed: 75
[7]; [23]
  Plant response rating, Field Bindweed: 65
[7]; [24]
  Plant response rating, Field Bindweed: 50
[7]; [25]
  Plant response rating, Field Bindweed: 70
[7]; [28]
  Plant response rating, Field Bindweed: 70
[7]; [26]
  Plant response rating, Field Bindweed: 98
[8]; [20]
  Plant response rating, Foxtail, Green: 25
[8]; [21]
  Plant response rating, Foxtail, Green: 35
[8]; [22]
  Plant response rating, Foxtail, Green: 65
[8]; [23]
  Plant response rating, Foxtail, Green: 20
[8]; [24]
  Plant response rating, Foxtail, Green: 0
[8]; [25]
  Plant response rating, Foxtail, Green: 5
[8]; [28]
  Plant response rating, Foxtail, Green: 40
[8]; [26]
  Plant response rating, Foxtail, Green: 70
[9]; 31 g ai/ha, scale 0 to 100
  Plant response rating, Groundsel: 100
[9]; 62 g ai/ha, scale 0 to 100 (0 no effect, 100 complete control)
  Plant response rating, Groundsel: 100
[9]; 125 g ai/ha, scale 0 to 100 (0 no effect, 100 complete control)
  Plant response rating, Groundsel: 100
[9]; 16 g ai/ha, scale 0 to 100
  Plant response rating, Groundsel: 100
[10]; [20]
  Plant response rating, Guineagrass: 20
[10]; [21]
  Plant response rating, Guineagrass: 35
[10]; [22]
  Plant response rating, Guineagrass: 60
[10]; [23]
  Plant response rating, Guineagrass: 10
[10]; [24]
  Plant response rating, Guineagrass: 0
[10]; [25]
  Plant response rating, Guineagrass: 10
[10]; [28]
  Plant response rating, Guineagrass: 70
[10]; [26]
  Plant response rating, Guineagrass: 75
[11]; [20]
  Plant response rating, Itchgrass: 35
[11]; [21]
  Plant response rating, Itchgrass: 65
[11]; [22]
  Plant response rating, Itchgrass: 70
[11]; [23]
  Plant response rating, Itchgrass: 30
[11]; [24]
  Plant response rating, Itchgrass: 10
[11]; [25]
  Plant response rating, Itchgrass: 15
[11]; [28]
  Plant response rating, Itchgrass: 35
[11]; [26]
  Plant response rating, Itchgrass: 50
[12]; [20]
  Plant response rating, Johnsongrass: 50
[12]; [21]
  Plant response rating, Johnsongrass: 80
[12]; [22]
  Plant response rating, Johnsongrass: 80
[12]; [23]
  Plant response rating, Johnsongrass: 35
[12]; [24]
  Plant response rating, Johnsongrass: 50
[12]; [25]
  Plant response rating, Johnsongrass: 65
[12]; [28]
  Plant response rating, Johnsongrass: 80
[12]; [26]
  Plant response rating, Johnsongrass: 95
[13]; [20]
  Plant response rating, Mallow: 65
[13]; [21]
  Plant response rating, Mallow: 70
[13]; [22]
  Plant response rating, Mallow: 75
[13]; [23]
  Plant response rating, Mallow: 60
[13]; [24]
  Plant response rating, Mallow: 80
[13]; [28]
  Plant response rating, Mallow: 95
[13]; [26]
  Plant response rating, Mallow: 98
[14]; [20]
  Plant response rating, Prickly Sida: 95
[14]; [21]
  Plant response rating, Prickly Sida: 95
[14]; [22]
  Plant response rating, Prickly Sida: 98
[14]; [24]
  Plant response rating, Prickly Sida: 90
[14]; [25]
  Plant response rating, Prickly Sida: 100
[14]; [28]
  Plant response rating, Prickly Sida: 100
[14]; [26]
  Plant response rating, Prickly Sida: 100
[15]; [20]
  Plant response rating, Purslane: 80
[15]; [21]
  Plant response rating, Purslane: 90
[15]; [22]
  Plant response rating, Purslane: 90
[15]; [23]
  Plant response rating, Purslane: 75
[15]; [24]
  Plant response rating, Purslane: 80
[15]; [25]
  Plant response rating, Purslane: 100
[15]; [28]
  Plant response rating, Purslane: 100
[15]; [26]
  Plant response rating, Purslane: 100
[16]; [20]
  Plant response rating, Quackgrass: 0
[16]; [21]
  Plant response rating, Quackgrass: 15
[16]; [22]
  Plant response rating, Quackgrass: 20
[16]; [23]
  Plant response rating, Quackgrass: 0
[16]; [24]
  Plant response rating, Quackgrass: 0
[16]; [25]
  Plant response rating, Quackgrass: 0
[16]; [26]
  Plant response rating, Quackgrass: 20
[17]; [20]
  Plant response rating, Ragweed: 80
[17]; [21]
  Plant response rating, Ragweed: 80
[17]; [22]
  Plant response rating, Ragweed: 100
[17]; [23]
  Plant response rating, Ragweed: 80
[17]; [24]
  Plant response rating, Ragweed: 90
[17]; [25]
  Plant response rating, Ragweed: 95
[17]; [26]
  Plant response rating, Ragweed: 100
[17]; Preemergence, rate not given, scale 0 to 100, 0 no effect, 100 complete control
  Plant response rating, Ragweed: 100
[18]; [20]
  Plant response rating, Sandbur: 50
[18]; [21]
  Plant response rating, Sandbur: 65
[18]; [22]
  Plant response rating, Sandbur: 95
[18]; [23]
  Plant response rating, Sandbur: 10
[18]; [24]
  Plant response rating, Sandbur: 5
[18]; [25]
  Plant response rating, Sandbur: 5
[18]; [26]
  Plant response rating, Sandbur: 98
[19]; [20]
  Plant response rating, Sowthistle: 100
[19]; [21]
  Plant response rating, Sowthistle: 100
[19]; [22]
  Plant response rating, Sowthistle: 100
[19]; [23]
  Plant response rating, Sowthistle: 100
[19]; [24]
  Plant response rating, Sowthistle: 100
[19]; [25]
  Plant response rating, Sowthistle: 100
[19]; [26]
  Plant response rating, Sowthistle: 100
